Data reported in publication PMC11325505, “Nitrogen-Containing Flavonoids—Preparation and Biological Activity” (ACS Omega, 2024).
Converted amounts (≈) assume the structure as drawn. “And” between values parts separate entries of the source, which are not always exact repeats. Equal values may be shown once. Read-outs that look alike come from different tables or passages of the source.

How the values were obtained:
S. aureus CCM 4223 = experiment: Antibacterial activity, antibiotic-sensitive strain; type: cell-based; settings: Staphylococcus aureus, CCM4223, three repetitions ± SEM
[1] = system: transmembrane efflux pumps; experiment: Ethidium bromide accumulation assay; type: cell-based, S. aureus MSSA 2; settings: for efflux inhibition (ethidium bromide accumulation), in words: compared with comparator CCCP, concentrations 25–100 μM; for accumulation of ethidium bromide compared to 100 μM CCCP: compound at 25 μM, relative to CCCP (100 μM)
Description: The application of antibiotics often leads to oxidative stress in bacteria, which triggers the efflux pump systems that contribute to antimicrobial resistance.[34] Therefore, modulation of the efflux system has been proposed as another plausible target of derivatives. The efflux pump inhibitor carbonyl cyanide 3-chlorophenylhydrazone (CCCP) was used as a comparator in our assay. Its action destroys the proton-motive force at the membrane so that the efflux pump cannot transport substrates out of the cell. One such universal substrate is ethidium bromide, the accumulation of which in the cell can be measured using fluorescence.
The accumulation assay was performed according to previously published methods with minor modifications.[15],[42] Briefly, a bacterial culture of S. aureus MSSA 2 cultured overnight in the presence of colistin (4 mg/L) to induce oxidative stress and activate efflux system[34] was diluted in PBS to OD600 nm = 0.6. The suspension was centrifuged (13,000 × g; 3 min), resuspended in fresh PBS, and distributed into the wells of a black 96-well microtiter plate (ThermoFisher Scientific). Samples were diluted with EtBr solution (4 μg/mL). 50 μL of the mixture was added to 50 μL of the bacterial suspension. The reaction was monitored using SpectraMax iD5Multi-Mode Microplate Reader (ex/em = 530/600 nm) every 60 s for 60 min.

[2] = system: Methicilin-Resistant S. aureus 331 Strain; experiment: Mode of antimicrobial action with erythromycin, ermC-positive strain; type: cell-based; settings: for MIC, erythromycin [1 mg/L] yes / MIC, erythromycin [1 mg/L] no: MRSA 331 (ermC); for MIC, erythromycin [1 mg/L] yes: with erythromycin 1 mg/L; for MIC, erythromycin [1 mg/L] no: without erythromycin; for FIC (Fractional Inhibitory Concentration Index): with erythromycin
Description: Erythromycin is a macrolide antibiotic that inhibits proteosynthesis by binding to the 50S subunit of the ribosome. In Staphylococcus species, resistance to erythromycin is associated with the presence of methyltransferases (encoded by erm genes) that alter the ribosomal target site. Another typical mechanism of resistance to erythromycin is the presence of an ATP-dependent efflux pump encoded by the msr(A) gene or a major facilitator superfamily (MFS) pump encoded by the lmrS gene. Both efflux pumps reduce the concentration of erythromycin in the cell below the therapeutic dose by transporting it across the membrane to the extracellular space. Another erythromycin resistance gene is the mph(C) gene, the product of which is a phosphotransferase that alters the structure of macrolide antibiotics. To elucidate the mechanism of erythromycin resistance modulation in S. aureus, further tests were performed with the strains MRSA 331 and MRSA 3596, which inactivate erythromycin via a single mechanism (ermC and ermA, respectively). […] Therefore, if the activity was not strain-specific, it would be necessary to consider the effect of the derivatives on this pump (Table 3).
(§1) Sensitization of multidrug-resistant clinical bacterial strains was performed according to ref[15]. Antibiotic cutoff concentration was chosen according to the European Committee on Antimicrobial Susceptibility Testing (EUCAST, Clinical breakpoints–bacteria, ver. 11.0). The 200 μM concentration of the derivatives was chosen as the highest test concentration. The absorbance detected at 600 nm was then used to estimate the number of viable cells after 24 h of incubation at 37 °C and 120 rpm.
(§2) Experiments were performed with the respective number of replicates indicated in each figure/table. MIC was determined as IC70. Both IC70 and IC50 values were calculated using the following nonlinear regression in the software GraphPad Prism: […]

[3] = system: nitric oxide (NO) production by RAW 264.7 stimulated by LPS; experiment: Anti-inflammatory activity: NO production by LPS-stimulated macrophages; type: cell-based, Murine; settings: Mus musculus, RAW264.7; LPS-stimulated RAW 264.7; average of four repetitions ± SEM
Description: (§3) The anti-inflammatory activity of flavonoids was evaluated as their ability to decrease the production of signaling molecules that mediate inflammation, such as nitric oxide (NO), tumor necrosis factor (TNF-α), and interleukin 6 (IL-6), in LPS-stimulated macrophages.
(§4) The anti-inflammatory activity of the tested flavonoids was determined as the ability to reduce the production of nitric oxide (NO), tumor necrosis factor (TNF-α), and interleukin 6 (IL-6) by RAW 264.7 stimulated by LPS, as previously described.[39],[40] Briefly, 1 × 10^6 cells/mL was seeded into the 96-well plate (100 μL/well). After 48 h, LPS (100 ng/mL) and the samples (3–100 μM) were added to the MEM medium. After 24 h, the medium was mixed with Griess reagent (0.04 g/mL) at a 1:1 ratio. The absorbance was measured after 15 min at 540 nm. Cell viability was determined using the resazurin assay.

[4] = system: human dermal fibroblasts (HDF); experiment: Cytotoxicity (resazurin assay), fibroblasts; type: cell-based; settings: Homo sapiens, Fibroblast, 72 h, read-out: HDF IC50 (concentration that halved the viability)
Description: (§5) The cytotoxicity of the prepared derivatives was evaluated by their ability to decrease the viability of immortalized human keratinocytes (HaCaT) and human dermal fibroblasts (HDF).
(§6) 100 μL of cell suspension containing 10^5 cells/mL was pipetted into a 96-well plate. After 24 h incubation, the tested compounds were added in the concentration range 12.5–200 μM. After 72 h incubation, the cell viability was tested by standard resazurin assay.[41] Briefly, the cells were washed with PBS and incubated with 100 μL of resazurin solution (0.025 mg/mL) for 2 h. The fluorescence was measured at a wavelength of 560 nm excitation/590 nm emission.

[5] = system: interleukin 6 (IL-6) production by RAW 264.7 stimulated by LPS; experiment: Anti-inflammatory activity: IL-6 production by LPS-stimulated macrophages; type: cell-based, Murine; settings: for IC50: Mus musculus, RAW264.7, LPS-stimulated RAW 264.7, average of four repetitions ± SEM; for ability to inhibit IL-6 production compared to luteolin, in words: LPS-stimulated macrophages
Description: as §3, §4
To determine TNF-α levels, cells were precultivated with the tested compounds for 24 h. After 2 h of incubation with LPS, the medium was diluted 1:10 with ELISA diluent. To determine the level of IL-6, cells were cultivated for 6 h with LPS and the tested compounds. Cytokine production was determined using an uncoated ELISA performed according to the manufacturer’s instructions.

[6] = system: immortalized human keratinocytes (HaCaT); experiment: Cytotoxicity (resazurin assay), keratinocytes; type: cell-based; settings: Homo sapiens, HaCaT, 72 h, read-out: HaCaT IC50 (concentration that halved the viability)
Description: as §5, §6

[7] = system: Staphylococcus aureus MRSA 9; experiment: Modulation of antibiotic-resistant phenotype (flavonoid plus breakpoint concentration of antibiotic); type: cell-based; settings: for minimum inhibitory concentration (MIC) in the presence of erythromycin: erythromycin at breakpoint concentration 1 mg/L; for minimum inhibitory concentration (MIC) in the presence of erythromycin / minimum inhibitory concentration (MIC) in the presence of gentamicin: MIC determined as IC70, three repetitions ± SEM; for minimum inhibitory concentration (MIC) in the presence of gentamicin: gentamicin at breakpoint concentration 1 mg/L
Description: To evaluate the ability to modulate bacterial resistance, the tested flavonoids themselves cannot exert antimicrobial activity; therefore, the nontoxic concentration was used, as indicated in Table S5. Clinically relevant antibiotics were selected at breakpoint concentrations for susceptibility testing according to the European Committee on Antimicrobial Susceptibility Testing (EUCAST, version 11.0). […] Flavonoids and their derivatives (from 1 μM to the highest nontoxic concentration) were used in combination with the breakpoint concentration of the antibiotics. After coincubation, the minimum inhibitory concentration (MIC) of flavonoids inhibiting the visible growth of bacteria was determined (Table 2).
as §1, §2

[8] = 72 h incubation, resazurin, average of three repetitions ± SEM

SMILES	IC50 (S. aureus CCM 4223)	efflux inhibition (ethidium bromide accumulation), in words [1]	MIC, erythromycin [1 mg/L] yes [2]	MIC, erythromycin [1 mg/L] no [2]	FIC (Fractional Inhibitory Concentration Index) ([2]; MRSA 331)	IC50 [3]	IC50 [4]	IC50 [5]	IC50 [6]	inhibition at 200 µM ([7]; Staphylococcus aureus, MRSA, with gentamicin 1 mg/L, maximum concentration used (200 μM), read-out: maximum concentration used inhibited bacterial growth to)	minimum inhibitory concentration (MIC) in the presence of erythromycin [7]	minimum inhibitory concentration (MIC) in the presence of gentamicin [7]	IC50 [4, 8]	ability to inhibit IL-6 production compared to luteolin, in words [5]	IC50 [6, 8]	accumulation of ethidium bromide compared to 100 μM CCCP [1]	effect (mode of action with erythromycin) ([2]; MRSA 331)
O=c1c(O)c(-c2ccc(O)c(O)c2)oc2cc(O)cc(O)c12 [compound 4, quercetin, reference compound]	> 200 µM	efflux inhibitors	190.9 ± 0.5 µM (≈ 57.7 µg/mL)	193.1 ± 1.0 µM (≈ 58.4 µg/mL)	0.99 ± 0.01	9.3 ± 0.6 µM	80 ± 1.5 µM	4.7 ± 0.2 µM	127 ± 3.4 µM	57%	117.3 ± 4.7 µM	>200 ^note 1 μM					
O=c1cc(-c2ccc(O)c(O)c2)oc2c(Nc3cccc(F)c3)c(O)cc(O)c12 [compound 15, 2-(3,4-Dihydroxyphenyl)-8-(3-fluoroanilino)-5,7-dihydroxy-4H–1-benzopyran-4-one]	28 ± 2.2 µM					31.8 ± 0.9 µM		8 ± 0.6 µM			>200 µM	12.4 ± 0.3 µM	30.9 ± 2.1 µM	same ability to inhibit IL-6 production as luteolin	26 ± 5.8 µM		
O=c1c(O)c(-c2ccc(O)c(O)c2)oc2c(Nc3ccc(F)cc3)c(O)cc(O)c12 [compound 5, 2-(3,4-Dihydroxyphenyl)-8-(4-fluoroanilino)-3,5,7-trihydroxy-4H–1-benzopyran-4-one]	28 ± 0.1 µM					37.4 ± 1.6 µM		14.6 ± 0.8 µM			>200 µM	45.2 ± 0.6 µM	95.9 ± 6.1 µM		37.6 ± 3.4 µM	75%	
O=c1cc(-c2ccc(O)c(O)c2)oc2c(Nc3ccccc3)c(O)cc(O)c12 [compound 13, 2-(3,4-Dihydroxyphenyl)-8-(anilino)-5,7-dihydroxy-4H–1-benzopyran-4-one]	50 ± 1.2 µM					29.3 ± 0.1 µM		7.3 ± 0.6 µM			>200 µM	24.7 ± 0.8 µM	58.3 ± 2.7 µM	same ability to inhibit IL-6 production as luteolin	41.4 ± 3.7 µM		
COc1ccc(Nc2c(O)cc(O)c3c(=O)cc(-c4ccc(O)c(O)c4)oc23)cc1 [compound 12, 2-(3,4-Dihydroxyphenyl)-8-(4-methoxyanilino)-5,7-dihydroxy-4H–1-benzopyran-4-one]	54 ± 0.1 µM		54.8 ± 0.4 µM (≈ 22.3 µg/mL)	54.4 ± 2.1 µM (≈ 22.2 µg/mL)	1.01 ± 0.05	48.3 ± 1.3 µM		15.3 ± 0.5 µM			76.3 µM and 76.3 ± 1.9 µM	44.0 ± 1.6 µM	35.5 ± 1.5 µM		59.3 ± 6.3 µM		
O=c1c(O)c(-c2ccc(O)c(O)c2)oc2c(Nc3ccc(C(F)(F)F)cc3)c(O)cc(O)c12 [compound 8, 2-(3,4-Dihydroxyphenyl)-8-(4-(trifluoromethyl)anilino)-3,5,7-trihydroxy-4H–1-benzopyran-4-one]	39.3 ± 1.8 µM		15.9 ± 0.8 µM (≈ 7.34 µg/mL)	6.9 ± 0.2 µM (≈ 3.18 µg/mL)		53.3 ± 0.8 µM	111.9 ± 0.5 µM	35.1 ± 1.6 µM	117.1 ± 0.1 µM		>25 ^note 3 μM	8.1 µM and 8.1 ± 0.6 µM					antagonism (≥2 indicates antagonism)
O=c1cc(-c2ccc(O)c(O)c2)oc2c(Nc3ccc(C(F)(F)F)cc3)c(O)cc(O)c12 [compound 14, 2-(3,4-Dihydroxyphenyl)-8-(4-(trifluoromethyl)anilino)-5,7-dihydroxy-4H–1-benzopyran-4-one]	15.3 ± 0.7 µM		27.0 ± 1.5 µM (≈ 12 µg/mL)	27.0 ± 5.1 µM (≈ 12 µg/mL)	1.00 ± 0.25	> 25 µM	29.9 ± 1.1 µM	12.4 ± 0.4 µM	26.8 ± 1.6 µM		>15 ^note 5 μM						
O=c1cc(-c2ccc(O)c(O)c2)oc2c(Nc3ccc(F)cc3)c(O)cc(O)c12 [compound 11, 2-(3,4-Dihydroxyphenyl)-8-(4-fluoroanilino)-5,7-dihydroxy-4H–1-benzopyran-4-one]	42 ± 1.2 µM	higher activity than CCCP alone	57.4 ± 0.2 µM (≈ 22.7 µg/mL)	57.6 ± 0.2 µM (≈ 22.8 µg/mL)	1.00 ± 0.01	> 25 µM	51.9 ± 3.7 µM	7.2 ± 0.3 µM	76.9 ± 7.7 µM		>25 ^note 4 μM	7.9 µM and 7.9 ± 0.5 µM		same ability to inhibit IL-6 production as luteolin		comparable to 8-(4-fluoroanilino) quercetin (5)	
